Data on three molecules can be found in patent EP2444086A1, “Combinations comprising DHODH inhibitors and COX inhibitors” (Almirall, S.A., priority 2010, dated 2012).

The subject of the assay is HaCaT cells. Description: Proliferation assay (ATP-lite bioluminescent assay of intracellular ATP content). The assay is classed as cell-based. The note with it: Homo sapiens, 144 h; inhibition of proliferation of HaCaT cells, 6 days incubation, 10% FBS, absolute IC50, mean of 3 experiments. Here is the method: Human adult low calcium high temperature (HaCaT) cells are spontaneously transformed human keratinocytes that have the characteristics of basal epidermal keratinocytes (Boukamp et at. J Cell Biol 106:761-771, 1988) This line can be used as in vitro model for highly proliferative epidermis (Ockenfels et at., Arch Dermatol Res 287:301-309, 1995)
HaCaT cells exponentially growing were plated in clear bottom, white walled, 96-well plates at a density of 5000 cells/well in 100 µL Dulbecco's modified Eagle's medium (DMEM) containing 1% fetal bovine serum (FBS), and incubated overnight at 37 °C, 5% CO2. Next day, media in each well was replaced with 50 µL growth medium containing 10% FBS. 50 µL of compounds at two-fold the desired concentration in growth medium containing 2% dimethyl sulfoxide (DMSO) were added to the wells. Six wells were replaced with fresh 100 µL of medium containing 1% FBS and 1% DMSO and were used as a control of no proliferation. Six other wells were replaced with fresh 100 µL of medium containing 10% FBS and 1% DMSO and were used as a control of top proliferation. Each compound concentration was tested in triplicate and ranged from 100 µM to 0.4 µM in half-log serial dilutions. Plates were incubated at 37°C 5% CO2 for 6 consecutive days. On the day of the assay, media was removed and replaced with 100 µL of phosphate buffered saline (PBS). A bioluminescent assay was performed to assess the intracellular adenosine-5'-triphosphate (ATP) content following the manufacturer instructions (ATP-lite, Perkin Elmer, Belgium). Results were expressed as a % of inhibition of proliferation in relation to the top and bottom proliferation wells. Absolute IC50 corresponded to the concentration of compound that caused 50% inhibition of proliferation. Table 1 depicts the mean and the standard deviation of 3 experiments for each indicated compound/combination.
As for `COc1cccc(-c2cc(F)c(Nc3ncccc3C(=O)O)c(F)c2)c1` [Example 1, 2-(3,5-difluoro-3'-methoxybiphenyl-4-ylamino)nicotinic acid], the IC50 is 580 nM.

With `O=C(O)c1cc(C2CC2)ccc1Nc1cnc(-c2c(F)cccc2F)nc1` [Example 2, 5-cyclopropyl-2-(2-(2,6-difluorophenyl)pyrimidin-5-ylamino)benzoic acid], the IC50 came out at 260 nM.

In the case of `CC(O)=C(C#N)C(=O)Nc1ccc(C(F)(F)F)cc1` [Example 3, 2-Butenamide, 2-cyano-3-hydroxy-N-[4-(trifluoromethyl)phenyl]-, reference compound], the IC50 stood at 15200 nM.

Broadly, the IC50 is the point on the concentration scale where inhibition reaches its midpoint.
